pIC50: −log10 of the molar value. Read-outs that look alike come from different tables or passages of the source.
How the values were obtained:
[1] = tested on: asynchronous 3D7-A10 parasite cultures; experiment: Standard 72-h exposure asexual blood stage susceptibility assay (IC50^72h); assay type: cell-based, Plasmodium falciparum; settings: Plasmodium falciparum, 3D7, 72 h, read-out: Overall (72hr assay) Mean IC50 (IC50^72h)
[2] = tested on: 3D7-MR4 trophozoite parasite-infected RBCs; experiment: Metabolomic profiling (hydrophilic metabolite changes, UHPLC-MS); assay type: cell-based, Plasmodium falciparum
[3] = tested on: Plasmodium falciparum 3D7-A10 parasites; experiment: Stage specificity assay (8-h exposure of synchronized stages, IC50^8h); assay type: cell-based; settings: for pIC50: Plasmodium falciparum

## FC(F)(F)c1ccc(Nc2cc3[nH]c(-c4cccc(C(F)(F)F)c4)nc3cn2)nc1 [MMV675939]
[1]
  pIC50: 7.51
[2]; 10 × IC50^72h, 2.5 hr, trophozoites
  changes within the set of metabolites detected (low fold change group): did not induce major changes
[2]; metabolite 3-phosphoglycerate, log2 fold change
  Log2(fold changes) 3-phosphoglycerate: -0.0740
[2]; metabolite 4-Pyridoxic acid, log2 fold change
  Log2(fold changes) 4-Pyridoxic acid: 0.0934
[2]; metabolite 4-aminobutyrate, log2 fold change
  Log2(fold changes) 4-aminobutyrate: -0.0838
[2]; metabolite 4-phosphopantetheine, log2 fold change
  Log2(fold changes) 4-phosphopantetheine: 0.0000
[2]; metabolite 4-phosphopantothenate, log2 fold change
  Log2(fold changes) 4-phosphopantothenate: -0.1644
[2]; metabolite 5-aminopentanoic acid, log2 fold change
  Log2(fold changes) 5-aminopentanoic acid: 0.0000
[2]; metabolite 5-methyl-THF, log2 fold change
  Log2(fold changes) 5-methyl-THF: 0.0000
[2]; metabolite 5-phosphoribosyl-1-pyrophosphate, log2 fold change
  Log2(fold changes) 5-phosphoribosyl-1-pyrophosphate: 0.0000
[2]; metabolite 6-phospho-D-gluconate, log2 fold change
  Log2(fold changes) 6-phospho-D-gluconate: -0.0601
[2]; metabolite HVDD
  Log2(fold change) HVDD: 0.0907
[2]; metabolite Hydroxyisocaproic acid
  Log2(fold change) Hydroxyisocaproic acid: 0.0000
[2]; metabolite IDP
  Log2(fold change) IDP: 0.0000
[2]; metabolite IMP
  Log2(fold change) IMP: -0.0368
[2]; metabolite Inositol
  Log2(fold change) Inositol: 0.0000
[2]; metabolite Isopentyl-PP
  Log2(fold change) Isopentyl-PP: -0.3198
[2]; metabolite L-arginino-succinate
  Log2(fold change) L-arginino-succinate: 0.0258
[2]; metabolite LD
  Log2(fold change) LD: 0.2379
[2]; metabolite Myristoyl/tetradecanoyl-CoA
  Log2(fold change) Myristoyl/tetradecanoyl-CoA: 0.0000
[2]; metabolite N-Acetyl-L-alanine
  Log2(fold change) N-Acetyl-L-alanine: 0.0194
[2]; metabolite N-acetyl-L-ornithine
  Log2(fold change) N-acetyl-L-ornithine: -0.1313
[2]; metabolite N-acetyl-glucosamine-1/6-phosphate
  Log2(fold change) N-acetyl-glucosamine-1/6-phosphate: -0.1343
[2]; metabolite N-acetyl-glutamate
  Log2(fold change) N-acetyl-glutamate: -0.1472
[2]; metabolite N-acetyl-glutamine
  Log2(fold change) N-acetyl-glutamine: 0.0192
[2]; metabolite N-carbamoyl-L-aspartate
  Log2(fold change) N-carbamoyl-L-aspartate: -0.1451
[2]; metabolite NAD+
  Log2(fold change) NAD+: -0.0175
[2]; metabolite NADH
  Log2(fold change) NADH: -0.2763
[2]; metabolite NADP+
  Log2(fold change) NADP+: 0.0809
[2]; metabolite NADPH
  Log2(fold change) NADPH: -0.4301
[2]; metabolite O-acetyl-L-serine
  Log2(fold change) O-acetyl-L-serine: -0.0735
[2]; metabolite Octoluse 8/1P
  Log2(fold change) Octoluse 8/1P: -0.1460
[2]; metabolite Octoluse Bisphosphate
  Log2(fold change) Octoluse Bisphosphate: -0.0903
[2]; metabolite PD
  Log2(fold change) PD: -0.0797
[2]; metabolite PE
  Log2(fold change) PE: -0.0211
[2]; metabolite PEE
  Log2(fold change) PEE: 0.0917
[2]; metabolite PEEK
  Log2(fold change) PEEK: 0.1721
[2]; metabolite PVNF
  Log2(fold change) PVNF: 0.1648
[2]; metabolite Pyroglutamic acid
  Log2(fold change) Pyroglutamic acid: -0.1915
[2]; metabolite Pyrophosphate
  Log2(fold change) Pyrophosphate: 0.0000
[2]; metabolite Ribose-5-phosphate
  Log2(fold change) Ribose-5-phosphate: -0.1384
[2]; metabolite S-adenosyl-L-homocysteine
  Log2(fold change) S-adenosyl-L-homocysteine: 0.0407
[2]; metabolite S-adenosyl-L-methioninamine
  Log2(fold change) S-adenosyl-L-methioninamine: -0.3534
[2]; metabolite S-adenosyl-L-methionine
  Log2(fold change) S-adenosyl-L-methionine: 0.0000
[2]; metabolite S-methyl-5'-thioadenosine
  Log2(fold change) S-methyl-5'-thioadenosine: 0.0820
[2]; metabolite SD
  Log2(fold change) SD: -0.1003
[2]; metabolite SDL
  Log2(fold change) SDL: 0.0000
[2]; metabolite SID
  Log2(fold change) SID: 0.1202
[2]; metabolite Sedoheptulose bisphosphate
  Log2(fold change) Sedoheptulose bisphosphate: -0.2322
[2]; metabolite Thiamine pyrophosphate
  Log2(fold change) Thiamine pyrophosphate: 0.0281
[2]; metabolite UDP-D-glucose, log2 fold change
  Log2(fold changes) UDP-D-glucose: -0.0394
[2]; metabolite UDP-D-glucuronate, log2 fold change
  Log2(fold changes) UDP-D-glucuronate: -0.0296
[2]; metabolite UDP-N-acetyl-glucosamine, log2 fold change
  Log2(fold changes) UDP-N-acetyl-glucosamine: -0.1021
[2]; metabolite UDP, log2 fold change
  Log2(fold changes) UDP: -0.2552
[2]; metabolite UMP, log2 fold change
  Log2(fold changes) UMP: -0.1084
[2]; metabolite UTP, log2 fold change
  Log2(fold changes) UTP: 0.0000
[2]; metabolite hydroxyphenylpyruvate
  Log2(fold change) hydroxyphenylpyruvate: 0.0000
[2]; metabolite hydroxyproline/Aminolevulinate
  Log2(fold change) hydroxyproline/Aminolevulinate: -0.1121
[2]; metabolite hypoxanthine
  Log2(fold change) hypoxanthine: -0.1075
[2]; metabolite indole
  Log2(fold change) indole: 0.0000
[2]; metabolite inosine
  Log2(fold change) inosine: 0.0076
[2]; metabolite isoleucine
  Log2(fold change) isoleucine: 0.0000
[2]; metabolite lactate
  Log2(fold change) lactate: -0.1204
[2]; metabolite leucine
  Log2(fold change) leucine: 0.0000
[2]; metabolite lysine
  Log2(fold change) lysine: -0.3554
[2]; metabolite malate
  Log2(fold change) malate: -0.1053
[2]; metabolite maleic acid
  Log2(fold change) maleic acid: -0.1158
[2]; metabolite methionine
  Log2(fold change) methionine: -0.0422
[2]; metabolite myo-inositol
  Log2(fold change) myo-inositol: -0.1497
[2]; metabolite nicotinamide mononucleotide
  Log2(fold change) nicotinamide mononucleotide: 0.0424
[2]; metabolite nicotinate
  Log2(fold change) nicotinate: -0.2143
[2]; metabolite ornithine
  Log2(fold change) ornithine: 0.2780
[2]; metabolite orotate
  Log2(fold change) orotate: -0.3359
[2]; metabolite orotidine-5'-phosphate
  Log2(fold change) orotidine-5'-phosphate: -0.1978
[2]; metabolite oxaloacetate
  Log2(fold change) oxaloacetate: -0.2404
[2]; metabolite p-aminobenzoate
  Log2(fold change) p-aminobenzoate: 0.0000
[2]; metabolite p-hydroxybenzoate
  Log2(fold change) p-hydroxybenzoate: 0.0000
[2]; metabolite pantothenate
  Log2(fold change) pantothenate: -0.0579
[2]; metabolite phenylalanine
  Log2(fold change) phenylalanine: -0.1115
[2]; metabolite phenylpyruvate
  Log2(fold change) phenylpyruvate: 0.0000
[2]; metabolite phosphoenolpyruvate
  Log2(fold change) phosphoenolpyruvate: 0.0011
[2]; metabolite prephenate
  Log2(fold change) prephenate: -0.0728
[2]; metabolite proline
  Log2(fold change) proline: -0.1132
[2]; metabolite pyridoxine
  Log2(fold change) pyridoxine: 0.1122
[2]; metabolite pyruvate
  Log2(fold change) pyruvate: -0.1845
[2]; metabolite riboflavin
  Log2(fold change) riboflavin: 0.2197
[2]; metabolite ribose
  Log2(fold change) ribose: -0.0488
[2]; metabolite ribose-phosphate
  Log2(fold change) ribose-phosphate: -0.3090
[2]; metabolite ribulose-5-phosphate
  Log2(fold change) ribulose-5-phosphate: -0.1779
[2]; metabolite serine
  Log2(fold change) serine: -0.0132
[2]; metabolite sn-glycerol-3-phosphate
  Log2(fold change) sn-glycerol-3-phosphate: -0.0322
[2]; metabolite succinate/Methylmalonic acid
  Log2(fold change) succinate/Methylmalonic acid: 0.0214
[2]; metabolite succinyl-CoA/methylmalonyl-CoA
  Log2(fold change) succinyl-CoA/methylmalonyl-CoA: 0.0000
[2]; metabolite taurine
  Log2(fold change) taurine: -0.5626
[2]; metabolite thiamine
  Log2(fold change) thiamine: -0.2223
[2]; metabolite threonine/homoserine
  Log2(fold change) threonine/homoserine: -0.0861
[2]; metabolite thymidine
  Log2(fold change) thymidine: 0.0000
[2]; metabolite thymine, log2 fold change
  Log2(fold changes) thymine: 0.0000
[2]; metabolite trehalose-6-Phosphate, log2 fold change
  Log2(fold changes) trehalose-6-Phosphate: 0.0000
[2]; metabolite tryptophan, log2 fold change
  Log2(fold changes) tryptophan: -0.3649
[2]; metabolite tyrosine, log2 fold change
  Log2(fold changes) tyrosine: -0.0724
[2]; metabolite uridine, log2 fold change
  Log2(fold changes) uridine: 0.0000
[3]; 3D7-A10
  Ratio lowest IC50 8hr/IC50 72hr: 2.0
[3]; 3D7, read-out: Early rings Mean IC50 (IC50^8h), 8-h exposure 0–8 hr, 3D7-A10, survival at 60 h
  pIC50: 5.93
[3]; 3D7, read-out: Early trophozoites Mean IC50 (IC50^8h), 8-h exposure 16–24 hr, 3D7-A10, survival at 60 h
  pIC50: 7.20
[3]; 3D7, read-out: Late rings Mean IC50 (IC50^8h), 8-h exposure 8–16 hr, 3D7-A10, survival at 60 h
  pIC50: 6.57
[3]; 3D7, read-out: Late trophozoites Mean IC50 (IC50^8h), 8-h exposure 24–32 hr, 3D7-A10, survival at 60 h
  pIC50: 6.84
[3]; 3D7, read-out: Schizonts Mean IC50 (IC50^8h), 8-h exposure 32–40 hr, 3D7-A10, survival at 60 h
  pIC50: 5.78
[3]; most susceptible stages
  IC50^8h relative to IC50^72h value: 2 fold
[3]; period when the parasite was most susceptible (lowest IC50^8h)
  Stage of peak activity (Figure 6): early and late trophozoites
[3]; stage(s) with the lowest IC50^8h
  Peak Activity (Table S1): Trophs

Reference: article PMC7031696 (Cell chemical biology, 2019)
